The text below walks through data of patent US12583893B2, “Use of esculentin and its derivatives for use in the treatment of cystic fibrosis” (UNIVERSITÀ DEGLI STUDI DI ROMA LA SAPIENZA, priority 2019, dated 2026).

“Also recorded” adds a separate entry of the source. Square brackets hold non-standard residues; d marks the D form. Ends that are not written are not given here. d(pS) = N[C@H](COP(=O)(O)O)C(=O)O

Data set [1] has as its target T1, F508del CFTR (Homo sapiens, UniProt P13569, DEL508-508). As to the kind of experiment: CFTR-dependent trans-epithelial conductance by TEER in F508del-CFBE pre-incubated with Vx-809. The class given is cell-based. More on the design: expressed in transfected cells; host or cells: CFBE41o- human bronchial epithelial cells, lentiviral transduction (F508del-CFBE). Conditions: for CFTR conductance: 10 μM peptide + 20 μM FSK without GEN, 10 min, pre-incubated 24 h with 1 μM Vx-809. As to the method:
In parallel, to evaluate CFTR activation, the same saline solution was used. After measurement of basal TEER, 20 μM FSK+50 μM GEN as positive control, or FSK+ peptides at the desired concentration were added on the epithelium apical side. Finally, 30 μM PPQ102, a specific inhibitor of CFTR, was added on the epithelium apical side. After each addition, we waited ten minutes at 37° C. before measurement. From the values of TEER measured before and after CFTR inhibition, we calculated the CFTR-dependent trans-epithelial conductance for each condition [Sondo E, Falchi F, Caci E, Ferrera L, Giacomini E, Pesce E, Tomati V, Mandrup Bertozzi S, Goldoni L, Armirotti A, Ravazzolo R, Cavalli A, Pedemonte N (2018) Pharmacological Inhibition of the Ubiquitin Ligase RNF5 Rescues F508del-CFTR in Cystic Fibrosis Airway Epithelia. Cell Chem Biol 25, 891-905 e898].
Subsequently, was investigated the ability of Esc peptides to act as potentiators of mutated CFTR, by promoting its phosphorylation state or its channel opening time, mimicking the activity of forskolin (FSK) or genistein (GEN), respectively, which are both needed for full activation of CFTR [Sondo E, Falchi F, Caci E, Ferrera L, Giacomini E, Pesce E, Tomati V, Mandrup Bertozzi S, Goldoni L, Armirotti A, Ravazzolo R, Cavalli A, Pedemonte N (2018) Pharmacological Inhibition of the Ubiquitin Ligase RNF5 Rescues F508del-CFTR in Cystic Fibrosis Airway Epithelia. Cell Chem Biol 25, 891-905 e898]. Noteworthy, the adenylate cyclase activator FSK [Ma T, Thiagarajah J R, Yang H, Sonawane N D, Folli C, Galietta L J, Verkman A S (2002) Thiazolidinone CFTR inhibitor identified by high-throughput screening blocks cholera toxin-induced intestinal fluid secretion. J Clin Invest 110, 1651-1658] is reported to trigger an increase of intracellular cAMP favouring CFTR phosphorylation by cellular protein kinases e.g. PKA, while the isoflavone GEN accelerates channel opening, by promoting NBD dimerization, and slows channel closure by stabilizing the NBD1:NBD2 dimer conformation [Schmidt A, Hughes L K, Cai Z, Mendes F, Li H, Sheppard D N, Amaral M D (2008) Prolonged treatment of cells with genistein modulates the expression and function of the cystic fibrosis transmembrane conductance regulator. Br J Pharmacol 153, 1311-1323]. The CFTR-mediated conductance of bronchial epithelium was evaluated by TEER, after 10 min, 1 h and 2 h treatment of F508del-CFBE (pre-incubated with the corrector Vx-809 in order to trigger the mutated protein to the apical membrane) with Esc(1-21)-1c (10 μM), in the absence of FSK or GEN. […] This clearly denoted that the peptide was able to potentiate CFTR activity, likely by prolonging its channel opening time.
The conductance was then measured on F508del-CFBE. […]

The subject of a further data set is P. aeruginosa biofilm. Conditions: compared with Esc(1-21); cited from earlier work.
The test system of another data set is wt-CFBE. Conditions: compared with Esc(1-21); cited from earlier work.
The test system of another data set is F508del-CFBE. The settings on record: compared with Esc(1-21); cited from earlier work.
The subject of another data set is Pseudomonas. The settings on record: single intra-tracheal instillation, cited from earlier work.
In data set [2] the target is T1, F508del CFTR. The data set can be described thus: Ussing chamber short-circuit current on bronchial epithelia from homozygous F508del patient. Format: cell-based. Details: Ussing chamber experiments on bronchial epithelia from homozygous F508del patient; host or cells: primary human bronchial epithelial cells from a CF patient homozygous for F508del. Conditions: epithelia incubated 24 h with 1 μM Vx-809, then amiloride, cpt-cAMP and potentiator. As to the method: Snapwell inserts (Corning 3801) carrying differentiated bronchial epithelia were mounted in a vertical diffusion chamber, resembling a Ussing chamber with internal fluid circulation. Both apical and basolateral chambers were filled with 5 ml of saline solution. The short-circuit current was recorded with a PowerLab 4/25 (ADInstruments) analog-to-digital converter connected to a computer. Epithelia were incubated for 24 h with 1 μM Vx-809 or 0.1% DMSO. Afterwards, 10 μM amiloride was added; subsequently, CFTR channels were activated by phosphorylation upon addition of 100 μM cpt-cAMP (permeable cAMP analog). Then, 1 μM of the potentiator Vx-770 as well as each Esc peptide was added on the epithelium apical side, as indicated. Finally, 10 μM Inh172, a specific inhibitor of CFTR was added to the epithelium apical side. Measurements were done after 5 min from the addition of each substance. In parallel, epithelia pre-incubated for 24 h with each peptide and then treated with amiloride, cpt-cAMP and Vx-770 were used for comparison.
The CFTR potentiating activity of Esc peptides in primary airway epithelial cells was studied by Ussing chamber experiments on bronchial epithelia from homozygous F508del patient. Epithelia were treated for 24 h with 0.1% DMSO vehicle alone, 1 μM Vx809 or with each Esc peptide. […]

The subject of another data set is Pseudomonas aeruginosa. Conditions: cited from earlier work.
For data set [3], the target named is T1, F508del CFTR. As to the kind of experiment: Trans-epithelial electrical conductance in del508-FRT cells, position-17 analogs. Format: cell-based. Details: expressed in transfected cells. Conditions: 10 min treatment with 10 μM peptide tested as potentiator (instead of genistein). The source says: To understand whether the potentiator effect of Esc peptides was specifically dependent on their sequence and/or correlated to the presence of Ser17, eventually upon its phosphorylation by PKA, a series of peptide analogs bearing different L/D amino acids at position 17 were synthesized, the analogs are presented in the following table 1. The analogs were used to measure the trans-epithelial electrical conductance in […] Rat Thyroid cells, which is a cell line frequently used for functional studies and stably expressing F508del-CFTR (del508-FRT). Among them, compounds 3 and 5 carrying L and D-Alanine, respectively; compound 6 carrying the achiral Glycine17; compounds 7 and 8, with another potential target amino acid of protein kinases i.e. D and L-threonine respectively; and compounds 9 ad 10 where Ser17 was replaced by a residue with a bulky side chain, i.e. D and L tryptophan, respectively. Furthermore, an analog with L-phosphoserine at position 17 were included for comparison.

T1 sequence (P13569 with tags, fused parts or gaps DEL508-508): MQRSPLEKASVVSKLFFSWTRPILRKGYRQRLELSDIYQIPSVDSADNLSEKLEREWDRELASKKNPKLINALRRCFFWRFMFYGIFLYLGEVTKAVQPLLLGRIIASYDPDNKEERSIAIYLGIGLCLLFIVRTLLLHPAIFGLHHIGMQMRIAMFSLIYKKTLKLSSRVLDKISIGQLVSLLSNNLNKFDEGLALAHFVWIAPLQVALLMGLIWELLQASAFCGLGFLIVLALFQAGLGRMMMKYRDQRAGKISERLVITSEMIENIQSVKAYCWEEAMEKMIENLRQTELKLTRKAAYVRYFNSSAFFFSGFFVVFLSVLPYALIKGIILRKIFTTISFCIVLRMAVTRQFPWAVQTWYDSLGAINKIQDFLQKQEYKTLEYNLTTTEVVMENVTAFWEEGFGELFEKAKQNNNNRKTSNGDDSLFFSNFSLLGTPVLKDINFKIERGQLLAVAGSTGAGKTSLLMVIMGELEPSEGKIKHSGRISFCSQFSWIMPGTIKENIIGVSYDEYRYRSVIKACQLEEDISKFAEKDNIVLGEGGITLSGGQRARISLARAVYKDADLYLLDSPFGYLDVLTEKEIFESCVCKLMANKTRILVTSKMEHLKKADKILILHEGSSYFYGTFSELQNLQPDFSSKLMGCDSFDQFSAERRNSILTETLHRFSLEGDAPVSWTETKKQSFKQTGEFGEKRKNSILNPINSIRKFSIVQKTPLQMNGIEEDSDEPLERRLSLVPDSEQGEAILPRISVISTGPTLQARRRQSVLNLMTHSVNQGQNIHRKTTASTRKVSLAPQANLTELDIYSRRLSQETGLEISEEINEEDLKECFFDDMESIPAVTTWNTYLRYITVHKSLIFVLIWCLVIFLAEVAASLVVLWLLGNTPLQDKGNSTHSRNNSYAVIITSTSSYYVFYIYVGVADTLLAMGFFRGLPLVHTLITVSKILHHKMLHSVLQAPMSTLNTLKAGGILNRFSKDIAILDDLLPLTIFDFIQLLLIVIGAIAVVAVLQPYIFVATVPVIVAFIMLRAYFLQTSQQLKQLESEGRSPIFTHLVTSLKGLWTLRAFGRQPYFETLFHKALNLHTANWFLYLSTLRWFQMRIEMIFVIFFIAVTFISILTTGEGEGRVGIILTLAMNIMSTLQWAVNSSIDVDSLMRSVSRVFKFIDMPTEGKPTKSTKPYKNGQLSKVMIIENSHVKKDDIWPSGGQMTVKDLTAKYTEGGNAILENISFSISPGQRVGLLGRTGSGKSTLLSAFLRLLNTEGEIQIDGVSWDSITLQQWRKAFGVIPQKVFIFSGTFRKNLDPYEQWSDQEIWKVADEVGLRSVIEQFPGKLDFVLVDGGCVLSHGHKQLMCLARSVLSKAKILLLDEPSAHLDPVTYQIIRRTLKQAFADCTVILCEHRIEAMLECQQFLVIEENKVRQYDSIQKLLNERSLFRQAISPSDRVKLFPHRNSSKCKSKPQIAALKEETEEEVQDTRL

Take “Gly-Ile-Phe-Ser-Lys-Leu-Ala-Gly-Lys-Lys-Ile-Lys-Asn-dLeu-Leu-Ile-dSer-Gly-Leu-Lys-Gly-NH2 (GIFSKLAGKKIKN[dL]LI[dS]GLKG-NH2) [Esc(1-21)-1c, diastereomer of Esc(1-21) with two D-amino acids]”: in the data set with F508del CFTR [1], the CFTR conductance result is “significant increase of CFTR conductance”. For the same compound, in the data set with F508del CFTR [1] (10 μM peptide + FSK without GEN, 1 h or 2 h treatment, pre-incubated with Vx-809), the “potentiator activity (CFTR conductance) over time” value is recorded as “remain constant up to 2 h”. Further, the “CFTR-mediated conductance (rescue of CFTR activity)” value in the data set with F508del CFTR [1] (10 μM peptide in the absence of FSK, pre-incubated with Vx-809) is given as “no rescue of CFTR activity”. Further, in the data set with P. aeruginosa biofilm, the “activity against P. aeruginosa biofilm” value is “more active against P. aeruginosa biofilm”. Besides, the “re-epithelialization of bronchial epithelial cells” value in the data set with wt-CFBE and in the data set with F508del-CFBE was “more efficient to induce re-epithelialization” each time. In the data set on Pseudomonas (0.1 mg/kg corresponding to 20 μM, compared with Esc(1-21)), the “reduction of lung bacterial burden” value was “more potent in reducing lung bacterial burden”. Moreover, the “toxicity or inflammatory side events” value in the data set with Pseudomonas (0.1 mg/kg) is listed as “negligible toxicity or inflammatory side events”.
Take temporin A [reference compound]: the CFTR conductance result at F508del CFTR [1] is listed as “no effect on CFTR currents”.
Regarding `CC(C)(C)c1cc(C(C)(C)C)c(NC(=O)c2c[nH]c3ccccc3c2=O)cc1O` [Vx-770], the “CFTR-mediated current as potentiator” value on F508del CFTR [2] is recorded as “significant current increase”.
Regarding “GIFSKLAGKKIKNLLISGLKG-NH2 [Esc(1-21), first 20 amino acids of Esculentin 1a with a glycinamide residue at the C-terminus]”, the antipseudomonal activity entry with Pseudomonas aeruginosa is “potent antipseudomonal activity”.
In the case of “Gly-Ile-Phe-Ser-Lys-Leu-Ala-Gly-Lys-Lys-Ile-Lys-Asn-dLeu-Leu-Ile-dphosphoSer-Gly-Leu-Lys-Gly-NH2 (GIFSKLAGKKIKN[dL]LI[d(pS)]GLKG-NH2; N-terminus assumed; SMILES CC[C@H](C)[C@H](NC(=O)CN)C(=O)N[C@@H](Cc1ccccc1)C(=O)N[C@@H](CO)C(=O)N[C@@H](CCCCN)C(=O)N[C@@H](CC(C)C)C(=O)N[C@@H](C)C(=O)NCC(=O)N[C@@H](CCCCN)C(=O)N[C@@H](CCCCN)C(=O)N[C@H](C(=O)N[C@@H](CCCCN)C(=O)N[C@@H](CC(N)=O)C(=O)N[C@H](CC(C)C)C(=O)N[C@@H](CC(C)C)C(=O)N[C@H](C(=O)N[C@H](COP(=O)(O)O)C(=O)NCC(=O)N[C@@H](CC(C)C)C(=O)N[C@@H](CCCCN)C(=O)NCC(N)=O)[C@@H](C)CC)[C@@H](C)CC) [compound 2, carrying D-phosphoSer at position 17]”, in the data set with F508del CFTR [3], the “transepithelial conductance (function of F508del-CFTR)” value is “significantly increase; also recorded: higher than that of genistein”.
